Results published in the supplement of paper PMC10307832.

How the values were obtained:
Experiment in all cases: relative viability (nuclei count vs DMSO), 5 days (fraction); higher = more cells survive
Carboplatin + Dasatinib = compound: C1CC(C1)(C(=O)O)C(=O)O.[NH2-].[NH2-].[Pt+2] [Carboplatin] + Cc1nc(Nc2ncc(C(=O)Nc3c(C)cccc3Cl)s2)cc(N2CCN(CCO)CC2)n1 [Dasatinib] (partner 0.075 µM)
Method in brief: (§1)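 Medians of duplicate plates are given as relative viability. That measure is the nuclei count in treated wells divided by the count in vehicle wells. Counts were taken on 4× images of lung cancer cell lines in 1536-well plates, 5 days after pin-tool dosing the day after seeding with one drug alone or a fixed anchor-drug dose plus five library-drug doses (not always all listed) in √10 steps.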

MLN4924 + Luminespib = compound: NS(=O)(=O)OC[C@@H]1C[C@@H](n2ccc3c(N[C@H]4CCc5ccccc54)ncnc32)C[C@@H]1O [MLN4924] + CCNC(=O)c1noc(-c2cc(C(C)C)c(O)cc2O)c1-c1ccc(CN2CCOCC2)cc1 [Luminespib] (partner 0.01 µM)
Method in brief: as §1

GSK126 + Pictilisib = compound: CC[C@H](C)N1C=C(C2=C(C=C(C=C21)C3=CN=C(C=C3)N4CCNCC4)C(=O)NCC5=C(C=C(NC5=O)C)C)C [GSK126] + CS(=O)(=O)N1CCN(Cc2cc3nc(-c4cccc5[nH]ncc45)nc(N4CCOCC4)c3s2)CC1 [Pictilisib] (partner 1 µM)
Method in brief: as §1

MLN4924 + Lapatinib = compound: NS(=O)(=O)OC[C@@H]1C[C@@H](n2ccc3c(N[C@H]4CCc5ccccc54)ncnc32)C[C@@H]1O [MLN4924] + CS(=O)(=O)CCNCc1ccc(-c2ccc3ncnc(Nc4ccc(OCc5cccc(F)c5)c(Cl)c4)c3c2)o1 [Lapatinib] (partner 2 µM)
Method in brief: as §1

Cell Line | relative viability (Carboplatin + Dasatinib; first compound 0.08 µM) | relative viability (Carboplatin + Dasatinib; first compound 0.253 µM) | relative viability (Carboplatin + Dasatinib; first compound 0.8 µM) | relative viability (Carboplatin + Dasatinib; first compound 2.53 µM) | relative viability (Carboplatin + Dasatinib; first compound 8 µM) | relative viability (MLN4924 + Luminespib; first compound 0.04 µM) | relative viability (MLN4924 + Luminespib; first compound 0.1265 µM) | relative viability (MLN4924 + Luminespib; first compound 0.4 µM) | relative viability (MLN4924 + Luminespib; first compound 1.265 µM) | relative viability (MLN4924 + Luminespib; first compound 4 µM) | relative viability (GSK126 + Pictilisib; first compound 0.08 µM) | relative viability (GSK126 + Pictilisib; first compound 0.253 µM) | relative viability (GSK126 + Pictilisib; first compound 0.8 µM) | relative viability (GSK126 + Pictilisib; first compound 2.53 µM) | relative viability (GSK126 + Pictilisib; first compound 8 µM) | relative viability (MLN4924 + Lapatinib; first compound 0.04 µM) | relative viability (MLN4924 + Lapatinib; first compound 0.1265 µM) | relative viability (MLN4924 + Lapatinib; first compound 0.4 µM) | relative viability (MLN4924 + Lapatinib; first compound 1.265 µM) | relative viability (MLN4924 + Lapatinib; first compound 4 µM)
NCI-H2342 | 0.328 | 0.344 | 0.311 | 0.28 | 0.294 | 0.773 | 0.757 | 0.682 | 0.723 | 0.464 | – | – | – | – | – | – | – | – | – | –
NCI-H2087 | 0.85 | 0.932 | 0.833 | 0.689 | 0.613 | 0.143 | 0.148 | 0.139 | 0.129 | 0.0909 | 1.08 | 0.745 | 0.815 | 0.894 | 0.844 | 0.843 | 0.597 | 0.233 | 0.142 | 0.132
NCI-H596 | 0.725 | 0.72 | 0.697 | 0.525 | 0.539 | 0.942 | 0.933 | – | 0.768 | 0.767 | 0.386 | 0.404 | 0.378 | 0.382 | 0.37 | 1.1 | 1.05 | 0.438 | 0.397 | 0.38
ChaGo-K-1 | 0.559 | 0.61 | 0.612 | 0.477 | 0.309 | 0.469 | 0.399 | 0.258 | 0.256 | 0.177 | 0.831 | 0.656 | 0.746 | 0.722 | 0.649 | – | – | – | – | –
SW 1573 | 0.58 | 0.495 | 0.474 | 0.507 | 0.329 | 0.259 | 0.365 | 0.0849 | 0.0812 | 0.0892 | 0.568 | 0.485 | 0.528 | 0.486 | 0.559 | 0.781 | 1.1 | 0.565 | 0.13 | 0.114
LCLC-97TM1 | 0.848 | 0.921 | 0.844 | 0.808 | 0.647 | 0.586 | 0.343 | 0.439 | 0.128 | 0.109 | 0.22 | – | 0.229 | 0.285 | 0.18 | 0.853 | 0.798 | 0.189 | 0.11 | 0.137
HCC-366 | 0.609 | 0.619 | 0.624 | 0.594 | 0.403 | – | – | – | – | – | 0.132 | 0.138 | 0.13 | 0.0968 | 0.126 | 0.788 | 0.479 | 0.037 | 0.0233 | 0.0288
HARA | 0.205 | 0.252 | 0.209 | 0.213 | 0.302 | 0.683 | 0.618 | 0.291 | 0.0565 | 0.0527 | 0.394 | 0.421 | 0.48 | 0.411 | 0.37 | 0.856 | 0.607 | 0.283 | 0.0754 | 0.0741
NCI-H1915 | 0.288 | 0.304 | 0.315 | 0.305 | 0.255 | 0.728 | 0.639 | 0.761 | 0.231 | 0.17 | 0.937 | 0.874 | 1.04 | 0.941 | 0.927 | 0.88 | 0.962 | 0.649 | 0.166 | 0.156
NCI-H1650 | 0.31 | 0.357 | 0.321 | 0.273 | 0.299 | 0.225 | 0.217 | 0.243 | 0.224 | 0.203 | 0.568 | 0.596 | 0.566 | 0.794 | 0.556 | 0.385 | 0.261 | 0.182 | 0.149 | 0.185
NCI-H650 | 0.472 | 0.47 | 0.399 | 0.423 | 0.371 | 0.86 | 0.543 | 0.367 | 0.17 | 0.162 | 1.02 | 0.781 | 0.884 | 0.884 | 0.801 | 0.492 | 0.543 | 0.26 | 0.166 | 0.169
NCI-H522 | 0.751 | 0.88 | 0.859 | 0.911 | 0.886 | 1.08 | 0.709 | 0.851 | 0.433 | 0.467 | – | – | – | – | – | – | – | – | – | –
Calu-6 | – | – | – | – | – | – | – | – | – | – | 1.03 | 0.987 | 0.913 | 1.07 | 0.967 | 0.868 | 0.6 | 0.211 | 0.122 | 0.129
HCC-78 | 0.576 | 0.425 | 0.372 | 0.416 | 0.489 | – | – | – | – | – | 0.25 | 0.201 | 0.178 | 0.217 | 0.237 | 0.871 | 0.515 | 0.683 | 0.142 | 0.215
IA-LM | – | – | – | – | – | – | – | – | – | – | 0.359 | 0.286 | 0.301 | 0.443 | 0.36 | 0.256 | 0.239 | 0.103 | 0.0582 | 0.0755
EBC-1 | – | – | – | – | – | – | – | – | – | – | 0.42 | 0.321 | 0.41 | 0.321 | 0.25 | 0.246 | 0.297 | 0.228 | 0.191 | 0.216
SW 900 | 0.837 | 0.616 | 0.442 | 0.409 | 0.467 | 0.148 | 0.183 | 0.154 | 0.152 | 0.178 | – | – | – | – | – | – | – | – | – | –
LCLC-103H | 0.481 | 0.55 | 0.524 | 0.482 | 0.445 | 0.947 | 0.92 | 0.724 | 0.217 | 0.166 | 0.712 | 0.555 | 0.683 | 0.626 | 0.658 | – | – | – | – | –
NCI-H1703 | – | – | – | – | – | – | – | – | – | – | 0.247 | 0.263 | 0.235 | 0.262 | 0.231 | 0.416 | 0.205 | 0.218 | 0.189 | 0.164
NCI-H1623 | 0.583 | 0.553 | 0.57 | 0.506 | 0.469 | 0.523 | 0.477 | 0.454 | 0.282 | 0.293 | – | – | – | – | – | – | – | – | – | –
NCI-H441 | 0.665 | 0.798 | 0.546 | 0.627 | 0.47 | 0.36 | 0.387 | 0.276 | 0.208 | 0.245 | 0.495 | 0.638 | 0.432 | 0.539 | 0.428 | – | – | – | – | –
